According to US9169463B2, “Stem cell for therapeutic use which is derived from human monocyte, and method for inducing same” (OTSUKA PHARMACEUTICAL CO., LTD., priority 2008, dated 2015):

Test system: peripheral blood monocytes
Assay: Comparison of stem cell-inducing activities of various gangliosides (viable cells, CellTiter-Glo)
Format: cell-based, human
Settings: gangliosides 100 μg/ml, rhM-CSF 25 ng/ml, second week of culture
Description: More specifically, gangliosides were added to a culture medium at a final concentration of 100 μg/ml, and peripheral blood monocytes were cultured.
rhM-CSF was added thereto at a final concentration of 25 ng/ml. Then, the number of viable cells in the second week of culture was quantified as luciferase activity using CellTiter-Glo (Promega).

Substance | stem cell-inducing activity (number of viable cells as luciferase activity, FIG. 3)
aNeu5Ac(2-3)bDGalp(1-3)bDGalNAc(1-4)[aNeu5Ac(2-8)aNeu5Ac(2-3)]bDGalp(1-4)bDGlcp(1-1)Cer [GT1b] | equally-strong stem cell-inducing activities
aNeu5Ac(2-3)bDGalp(1-3)bDGalNAc(1-4)[aNeu5Ac(2-3)]bDGalp(1-4)bDGlcp(1-1)Cer [GD1a] | equally-strong stem cell-inducing activities
bDGalp(1-3)bDGalNAc[aNeu5Ac(2-3)]bDGalp(1-4)bDGlcp(1-1)Cer [GM1] | equally-strong stem cell-inducing activities
